Test system: endogenous target monocytes in human PBMC
Assay: PBMC ex vivo monocyte depletion flow cytometry assay (Example 200)
Format: cell-based
Details: with anti-cotinine antibody (SEQ ID NO: 11/12), 18-24 hours, EC50 in molar, read-out: Ex Vivo Depletion Assay pEC50 (converted)
Experimental: A human PBMC (peripheral blood mononuclear cells) monocyte depletion flow cytometry assay was developed to screen compounds in a 384-well plate format. This assay incorporated endogenous natural killer cells to deplete endogenous target monocytes.
To screen compounds in the human PBMC monocyte depletion flow cytometry assay, 11-point dose-response curves were made from 1 mM stocks in neat DMSO by serially diluting an ARM compound of Formula (I) four-fold into a 384-well plate row-wise. These serially diluted compounds were then stamped into a flat bottom polypropylene 384-well plate (Greiner Bio-One) at 100 nL/well. Fifty microliters of 30 μg/mL anti-cotinine antibody having a heavy chain sequence of SEQ ID NO: 11 and a light chain sequence of SEQ ID NO: 12 (rabbit variable region with human IgG1 Fc domain containing a DE mutation (S239D/1332E)) that had been diluted in assay medium (RPMI 1640 (Gibco) containing 10% fetal bovine serum (Gibco), 1% Glutamax (Gibco) and 1% sodium pyruvate (Corning) was added to the wells of the plate. The plate was centrifuged for 1 min at 500 rpm (revolutions per minute) and then shaken for 5 min at room temperature. The plate was incubated for 15 minutes at 37° C./5% CO2.
Frozen PBMC cells (HemaCare BioResearch) were thawed and centrifuged at 1,200 rpm for 4 minutes. The cells were diluted to a cell density of 2×10^6 cells/mL in assay medium. Fifty microliters of the diluted cells were added to the wells of the plate. The plate was centrifuged for 1 min at 500 rpm and incubated for 18-24 hours at 37° C./5% CO2.
After 18-24 hours incubation, 2 μL of 6.25 μg human FC block (BD Pharmingen) that was diluted in assay medium was added to the wells of the plate. The plate was centrifuged for 1 minute at 500 rpm and then incubated at room temperature for 15 minutes. Five microliters of 750 nM Helix NP NIR (Biolegend) that had been diluted in assay medium was added to the wells of the plate. Nine microliters of antibody cocktail containing 1/5 diluted fluorescein isothiocyanate (FITC) labeled anti-CD45 antibody (Beckman Coulter), PC7 labeled anti-CD14 antibody (Beckman Coulter) and phyocoerythrin (PE) anti-CD4 antibody (Beckman Coulter) was then added to the wells of the plate. The plate was centrifuged for 1 min at 500 rpm and incubated for 30 minutes at 4-8° C. Samples from the plate were run on BD FACS Canto II flow cytometer and data was analyzed using FlowJo software.
ARMs compounds of Formula (I) of the invention were tested for the ability to deplete monocytes in the above assay in one or more experimental runs and the results are shown in Table 3 below. Potency of the compounds of the invention is reported as a pEC50 value. The pEC50 value is the negative log of the EC50 value, wherein the EC50 value is the half maximal effective concentration measured in molar (M). For compounds tested in more than one experimental run, the pEC50 value is reported as an average or as the individual values measured

Structure (SMILES)	EC50
CC(C)N(C)[C@@H]1CC[C@H](N2CC[C@H](Nc3ncnc4ccc(C(F)(F)F)cc34)C2=O)[C@H](NC(=O)CCCNC(=O)CCCC(=O)NCCCOCCCNC(=O)C2CC(=O)N(C)C2c2cccnc2)C1 (stereo in doubt) [Example 21, N1-(4-(((1R,2S,5R)-5-(Isopropyl(methyl)amino)-2-((S)-2-oxo-3-((6-(trifluoromethyl)quinazolin-4-yl)amino)pyrrolidin-1-yl)cyclohexyl)amino)-4-oxobutyl)-N5-(3-(3-((2S,3S)-1-methyl-5-oxo-2-(pyridin-3-yl)pyrrolidine-3-carboxamido)propoxy)propyl)glutaramide]	0.631 nM
CC(C)N(C)[C@@H]1CC[C@H](N2CC[C@H](Nc3ncnc4ccc(C(F)(F)F)cc34)C2=O)[C@H](NC(=O)C23CCC(NC(=O)CCOCCOCCOCCNC(=O)[C@H]4CC(=O)N(C)[C@@H]4c4cccnc4)(CC2)CC3)C1 [Example 25, (2S,3S)-N-(2-(2-(2-(3-((4-(((1R,2S,5R)-5-(Isopropyl(methyl)amino)-2-((S)-2-oxo-3-((6-(trifluoromethyl)quinazolin-4-yl)amino)pyrrolidin-1-yl)cyclohexyl)carbamoyl)bicyclo[2.2.2]octan-1-yl)amino)-3-oxopropoxy)ethoxy)ethoxy)ethyl)-1-methyl-5-oxo-2-(pyridin-3-yl)pyrrolidine-3-carboxamide]	2 nM
CC(C)N(C)[C@@H]1CC[C@H](N2CC[C@H](Nc3ncnc4ccc(C(F)(F)F)cc34)C2=O)[C@H](NC(=O)[C@H]2C[C@H](NC(=O)CCOCCNC(=O)CCOCCNC(=O)[C@@H]3CC(=O)N(C)[C@H]3c3cccnc3)C2)C1 [Example 45, (2S,3S)-N-(2-(3-((2-(3-(((1R,3r)-3-(((1R,2S,5R)-5-(Isopropyl(methyl)amino)-2-((S)-2-oxo-3-((6-(trifluoromethyl)quinazolin-4-yl)amino)pyrrolidin-1-yl)cyclohexyl)carbamoyl)cyclobutyl)amino)-3-oxopropoxy)ethyl)amino)-3-ixopropoxy)ethyl)-1-methyl-5-oxo-2-(pyridin-3-yl)pyrrolidine-3-carboxamide]	2 nM
CC(C)N(C)[C@@H]1CC[C@H](N2CC[C@H](Nc3ncnc4ccc(C(F)(F)F)cc34)C2=O)[C@H](NC(=O)CCCOC[C@H]2CC[C@H](COCCNC(=O)[C@H]3CC(=O)N(C)[C@@H]3c3cccnc3)CC2)C1 [Example 58, (2S,3S)-N-(2-(((1R,4S)-4-((4-(((1R,2S,5R)-5-(Isopropyl(methyl)amino)-2-((S)-2-oxo-3-((6-(trifluoromethyl)quinazolin-4-yl)amino)pyrrolidin-1-yl)cyclohexyl)amino)-4-oxobutoxy)methyl)cyclohexyl)methoxy)ethyl)-1-methyl-5-oxo-2-(pyridin-3-yl)pyrrolidine-3-carboxamide]	7.94 nM
CC(C)N(C)[C@@H]1CC[C@H](N2CC[C@H](Nc3ncnc4ccc(C(F)(F)F)cc34)C2=O)[C@H](NC(=O)CCCOCC23CCC(COCCNC(=O)[C@H]4CC(=O)N(C)[C@@H]4c4cccnc4)(CC2)CC3)C1 [Example 59]	1.58 nM
CC(C)N(C)[C@@H]1CC[C@H](N2CC[C@H](Nc3ncnc4ccc(C(F)(F)F)cc34)C2=O)[C@H](NC2CCC(C(=O)NCCOCCOCCNC(=O)[C@H]3CC(=O)N(C)[C@@H]3c3cccnc3)CC2)C1 (stereo partly drawn) [Example 68, (2S,3S)-N-(2-(2-(2-(4-(((1R,2S,5R)-5-(Isopropyl(methyl)amino)-2-((S)-2-oxo-3-((6-(trifluoromethyl)quinazolin-4-yl)amino)pyrrolidin-1-yl)cyclohexyl)amino)cyclohexane-1-carboxamido)ethoxy)ethoxy)ethyl)-1-methyl-5-oxo-2-(pyridin-3-yl)pyrrolidine-3-carboxamide]	100000 nM

Reference: patent publication US12521393B2, “Cytotoxicity targeting chimeras for CCR2-expressing cells” (GLAXOSMITHKLINE INTELLECTUAL PROPERTY DEVELOPMENT LIMITED, priority 2021, dated 2026)
